{"source": "patent US8147827B2", "about": "“Tumor treatment” (Genentech, Inc., priority 2004, dated 2012)", "key": {"[1]": {"test_system": "mouse colon", "assay": "Oligonucleotide array analysis (Affymetrix Mu74Av2) of normal colon/intestine of tumor-bearing mice treated with CPT-11 or saline", "type": "in vivo"}, "[2]": {"test_system": "Colo205 human colorectal cancer cells", "assay": "Growth, treatment and resection of Colo205 tumor xenografts in nude mice (mass, H&E)", "type": "in vivo", "excerpt": "(§1) Growth and treatment of human tumor xenografts—Female nude mice (Charles River Laboratories, Hollister Calif.) were maintained in accordance with the guide for the Care and Use of Laboratory Animals, Colo205 human colorectal cancer cells were harvested, resuspended in HBSS, and injected s.c. into flanks (5×10^6 cells/flank) of 6-8 week old mice. […] Twenty-four hours following the final dose of CPT-11 or saline, tumors were resected from the animals. […]. Half of each tumor was frozen immediately in liquid nitrogen for subsequent extraction of RNA and the other half was fixed in 10% neutral buffer formalin overnight and then transferred 24 hours later into 70% ethanol for sectioning, microscopic analysis and analysis by in situ hybridization. Tumor xenografts of the DLD-1 colorectal cell line were treated and prepared in essentially the same manner. The masses of the DLD-1 colorectal tumor xenografts at time of resection were 0.24, 0.10 and 0.21 for saline controls and 0.21, 0.1 and 0.12 for CPT-11-treated tumors."}, "[3]": {"test_system": "DLD-1 colorectal tumor xenografts", "assay": "Growth, treatment and resection of DLD-1 tumor xenografts in nude mice", "type": "in vivo, human", "details": "DLD-1 xenografts; CPT-11-treated; at time of resection; monohydrochloride, trihydrate", "excerpt": "as §1"}, "[4]": {"test_system": "Colo205 tumors", "assay": "Real-time PCR (TaqMan) of RNA from Colo205 xenograft tumors", "type": "in vivo, human", "method": "Real-Time PCR (TaqMan®)'The source of RNA used for RT-PCR analysis was the same as that used for the preparation of probes for oligonucleotide array analysis. Quantitative Reverse Transcriptase-PCR (RT-PCR) was performed using TaqMan® assay reagents from Perkin-Elmer, Applied Biosystems, 50 μl RT-PCR reactions consisted of 5 μl 10× TaqMan Buffer A, 300 μM of each dNTP, 5 mM MgCl2, 10 unites of RNase inhibitor, 12.5 units of MuLV Reverse Transcriptase, 1.25 units of AmpliTaq Gold DNA Polymerase, 200 nM probe, 500 nM primers and 100 ng RNA. Reaction conditions consisted of reverse transcription at 48° C. for 10 minutes, denaturation at 95° C. for 10 minutes, and 40 thermal cycles of 95° C. for 25 seconds, and 65° C. for 1 min. Reaction products were analyzed on 4-agarose gels (Invitrogen). Fold-induction for each gene of interest was determined using the ΔΔCt method and the result is presented relative to both GAPDH and actin in each figure. The following specific probes and primer sets were used for MFGE8 (Acc#U58516): forward primer: […] (SEQ ID NO: 1), reverse primer: […] (SEQ ID NO: 2), and probe: […] (SEQ ID NO: 3); GPC1 (Acc#X54232): forward primer: […] (SEQ ID NO: 4), reverse primer: […] (SEQ ID NO: 5), and probe: […] (SEQ ID NO:6); AQP3 (Acc# N74607): forward primer: […] (SEQ ID NO: 7), reverse primer: […] (SEQ ID NO: 8), and probe, […] […]"}, "[5]": {"test_system": "DLD-1 tumors", "assay": "Real-time PCR (TaqMan) of RNA from DLD-1 xenograft tumors, parallel to Colo205", "type": "in vivo, human", "method": "(§2) Real-Time PCR (TaqMan®)'The source of RNA used for RT-PCR analysis was the same as that used for the preparation of probes for oligonucleotide array analysis. Quantitative Reverse Transcriptase-PCR (RT-PCR) was performed using TaqMan® assay reagents from Perkin-Elmer, Applied Biosystems, 50 μl RT-PCR reactions consisted of 5 μl 10× TaqMan Buffer A, 300 μM of each dNTP, 5 mM MgCl2, 10 unites of RNase inhibitor, 12.5 units of MuLV Reverse Transcriptase, 1.25 units of AmpliTaq Gold DNA Polymerase, 200 nM probe, 500 nM primers and 100 ng RNA. Reaction conditions consisted of reverse transcription at 48° C. for 10 minutes, denaturation at 95° C. for 10 minutes, and 40 thermal cycles of 95° C. for 25 seconds, and 65° C. for 1 min. Reaction products were analyzed on 4-agarose gels (Invitrogen). Fold-induction for each gene of interest was determined using the ΔΔCt method and the result is presented relative to both GAPDH and actin in each figure. The following specific probes and primer sets were used for MFGE8 (Acc#U58516): forward primer: […] (SEQ ID NO: 1), reverse primer: […] (SEQ ID NO: 2), and probe: […] (SEQ ID NO: 3); GPC1 (Acc#X54232): forward primer: […] (SEQ ID NO: 4), reverse primer: […] (SEQ ID NO: 5), and probe: […] (SEQ ID NO:6); AQP3 (Acc# N74607): forward primer: […] (SEQ ID NO: 7), reverse primer: […] (SEQ ID NO: 8), and probe, […] (SEQ ID NO: 9); CDH17 (Acc#83228): forward primer: […] (SEQ ID NO: 10), reverse primer: […] (SEQ ID NO: 11), and probe: […] (SEQ ID NO: 12); Ly6D/E48 (Acc#Y12642): forward primer: […] (SEQ ID NO: 13); reverse primer: […] (SEQ ID NO: 14); and probe: […] (SEQ ID NO: 15); and Ly6E/SCA-2 (Acc# U66711): forward primer: […] (SEQ ID NO: 16); reverse primer: […] (SEQ ID NO: 17); and probe: […] (SEQ ID NO: 18)."}, "[6]": {"test_system": "normal colon tissue", "assay": "Real-time PCR with mouse-specific primers on normal colon of CPT-11 treated mice", "type": "in vivo", "details": "normal colon of CPT-11 treated vs control mice; data not shown", "method": "Real-Time PCR (TaqMan®)'The source of RNA used for RT-PCR analysis was the same as that used for the preparation of probes for oligonucleotide array analysis. Quantitative Reverse Transcriptase-PCR (RT-PCR) was performed using TaqMan® assay reagents from Perkin-Elmer, Applied Biosystems, 50 μl RT-PCR reactions consisted of 5 μl 10× TaqMan Buffer A, 300 μM of each dNTP, 5 mM MgCl2, 10 unites of RNase inhibitor, 12.5 units of MuLV Reverse Transcriptase, 1.25 units of AmpliTaq Gold DNA Polymerase, 200 nM probe, 500 nM primers and 100 ng RNA. Reaction conditions consisted of reverse transcription at 48° C. for 10 minutes, denaturation at 95° C. for 10 minutes, and 40 thermal cycles of 95° C. for 25 seconds, and 65° C. for 1 min. Reaction products were analyzed on 4-agarose gels (Invitrogen). Fold-induction for each gene of interest was determined using the ΔΔCt method and the result is presented relative to both GAPDH and actin in each figure. The following specific probes and primer sets were used for MFGE8 (Acc#U58516): forward primer: […] NO: 1), reverse primer: […] NO: 2), and probe: […] NO: 3); GPC1 (Acc#X54232): forward primer: […] NO: 4), reverse primer: […] NO: 5), and probe: […] […] Real-time PCR with primers specific for corresponding mouse transcripts was performed and with the exceptions of SPRR3 and Aquaporin-3, all of the mouse homologs were readily detected in RNA from mouse colon. […]"}, "[7]": {"test_system": "LY6D/E48 transcript", "assay": "LY6D/E48 mRNA induction in cultured cell lines by CPT-11 (real-time PCR)", "type": "cell-based, human", "details": "for LY6D/E48 transcript: monohydrochloride, trihydrate", "excerpt": "(§3) Cell lines-Colo205, HCT116, HT29 (ATCC Nos. CCL222, CCL221, CCL247, HTB38, respectively) are human colorectal adenocarcinoma cell lines. 293 is a human immortalized embryonic kidney cell line (ATCC CRL573). PC-3 is a human prostate adenocarcinoma cell line (ATCC CRL1435) and HT1080 is a human fibrosarcoma cell line (ATCC CCL-121). PC-3 stable cell lines were generated by transfection (Effectene, Qiagen) with a CMV-driven vector encoding either an NH2-terminal gD epitope-tagged form of LY6D/E48 or an empty vector and selected in 400 μg/ml G418 (Geneticin, Life Technologies, Inc.). Growth conditions were according to American Type Culture Collection (ATCC, Manassas, Va.) guidelines. For all cell lines, CPT11 treatments were done in 10 cm dishes for the indicated timepoints. Cells were harvested and RNA was prepared using RNeasy kit (Qiagen, Hilden, Germany). TaqMan® real-time quantitative PCR analysis was performed as described below.\nas §2"}, "[8]": {"test_system": "E48/Ly-6D", "assay": "E48/Ly-6D surface expression on Colo205 cells after CPT-11 (FACS, immunofluorescence)", "type": "cell-based, human", "method": "For flow cytometry, cells were grown to 90% confluence and removed from plates using 2 mM EDTA in PBS. Cells were washed and resuspended in FACS buffer (PBS with 1% BSA) and incubated for 60 min with anti-LY6D/[…] monoclonal antibody 15A5 or 17H7 or anti-gd antibody (Genentech, Inc.) followed by 60 min with anti-mouse secondary antibody conjugated to PE. Analysis was performed on FACS scan."}, "[9]": {"test_system": "Colo205 and DLD-1 cells", "assay": "Colo205 and DLD-1 cells treated in vitro with CPT-11, expression of genes of Table I", "type": "cell-based, human", "details": "data not shown", "excerpt": "as §3, with “LY6D/[…]” for “LY6D/E48”"}, "[10]": {"test_system": "Colo205 human tumor xenografts", "assay": "In vivo efficacy study, Colo205 xenografts in nude mice", "details": "CPT-11 alone, 80 mg/kg IP day 0, 4 & 8; regrowth at rapid rate after last administration"}}, "note": "Where “and” joins values, the source holds several entries; their conditions need not be identical. Identical values can stand only once. Entries after “also recorded” stand apart in the source; their conditions may differ. Counter-ions that a name gives are not always drawn."}
{"compound": "CCc1c2c(nc3ccc(OC(=O)N4CCC(N5CCCCC5)CC4)cc13)-c1cc3c(c(=O)n1C2)COC(=O)[C@]3(O)CC", "note": "[CPT-11, (S)-[1,4′-bipiperidine]-1′-carboxylic acid, 4,11-diethyl-3,4,12,14-tetrahydro-4-hydroxy-3,14-dioxo-1H-pyrano[3′,4′:6,7]indolizino(1,2-b)quinolin-9-yl ester, monohydrochloride, trihydrate]", "values": [{"measurement": "tumor-induced transcripts in normal mouse intestine", "setting": "[1]; apart from Metallothionein (MT1G)", "result": "none of the transcripts that were induced in the tumors by CPT-11 were induced in the normal mouse intestine"}, {"measurement": "cryptidin genes", "setting": "[1]; normal colon, three animals treated with CPT-11", "result": "activated in two of the three animals treated with CPT-11"}, {"measurement": "gene activation in colon, Mu74Av2 array", "setting": "[1]; unrelated to most genes induced in the xenografts", "result": "activation of a small number of genes in the colon"}, {"measurement": "average tumor mass, drug treated vs control group", "setting": "[2]; 24 hours after third injection", "result": "did not differ significantly"}, {"measurement": "average mass of the tumors", "setting": "[2]; 24 hours after third injection, control and drug treated groups", "result": "approximately 300 mg"}, {"measurement": "mass of resected tumor (individual tumors)", "setting": "[2]; CPT-11 80 mg/kg IP three times at 4 day intervals, 24 hours after final dose, monohydrochloride, trihydrate, 80 mg/kg", "result": "0.23 grams and 0.18 grams and 0.50 grams"}, {"measurement": "mass of resected tumor (individual tumors)", "setting": "[3]", "result": "0.21 and 0.1 and 0.12"}, {"measurement": "Galectin-7 mRNA", "setting": "[4]; Colo205 tumors", "result": "present and induced"}, {"measurement": "transcripts MFGE8, GPC1, AQP3, CDH17, LY6D, LY6E, identified and confirmed by real-time PCR", "setting": "[4]; three CPT-11 treated Colo205 tumors vs saline controls", "result": "significant upregulation in all three CPT-11 treated tumors relative to controls"}, {"measurement": "Activation of Keratin23 and E48", "setting": "[5]; Colo205 and DLD-1 tumors", "result": "occurred in both tumor types"}, {"measurement": "Neuromedin U, Annexin VIII, Transglutaminase, Aquaporin-3 and Maspin", "setting": "[5]; Colo205 and DLD-1 tumors", "result": "all induced by SPT-11 and expressed at comparable levels in the Colo205 and DLD-1 tumors"}, {"measurement": "Galectin-7 mRNA", "setting": "[5]; DLD-1 tumors", "result": "undetectable in both treated or control DLD-1 tumors"}, {"measurement": "Periplekin and Antileukoproteinase induction", "setting": "[5]; DLD-1 tumors compared with Colo205 tumors", "result": "induced by SPT-11 to a degree less than that observed for the Colo205 tumors"}, {"measurement": "genes induced by CPT-11, Colo205 and DLD-1 tumors in parallel", "setting": "[5]; real-time PCR, FIG. 2", "result": "most of the genes were induced by CPT-11 treatment of both tumor types"}, {"measurement": "expression of mouse homologs of tumor-induced genes", "setting": "[6]", "result": "no difference in expression of these genes was detected"}, {"measurement": "LY6D/E48 mRNA", "setting": "[7]; colorectal cancer cell line DLD-1", "result": "overexpressed LY6D/E48 MRNA in response to CPT-11"}, {"measurement": "LY6D/E48 mRNA", "setting": "[7]; colorectal cancer cell line HCT116", "result": "overexpressed LY6D/E48 MRNA in response to CPT-11"}, {"measurement": "LY6D/E48 mRNA", "setting": "[7]; colorectal cancer cell line HT29", "result": "overexpressed LY6D/E48 MRNA in response to CPT-11"}, {"measurement": "LY6D/E48 transcript level", "setting": "[7]; cultured Colo205 cells, 10 μM CPT-11, 24 and 48 hours", "result": "elevated within 24 hours post-treatment with a further enhancement by 48 hours"}, {"measurement": "LY6D/E48 mRNA", "setting": "[7]; fibrosarcoma cell line HT1080", "result": "overexpressed LY6D/E48 MRNA in response to CPT-11"}, {"measurement": "LY6D/E48 transcript", "setting": "[7]; human embryonic kidney cell line 293, 10 μM CPT-11", "result": "could not be detected in the absence or presence of CPT-11; also recorded: not detected"}, {"measurement": "LY6D/E48 transcript", "setting": "[7]; human prostate cancer PC3 cell line, 10 μM CPT-11", "result": "could not be detected in the absence or presence of CPT-11; also recorded: not detected"}, {"measurement": "anti-LY6D/E48 signal intensity by fluorescence activated cell sorting", "setting": "[8]; Colo205 cells, increasing concentrations of CPT-11 in vitro, 2 days", "result": "increased in a dose dependent manner"}, {"measurement": "signal intensity and percentage of reactive cells by immunofluorescent microscopy", "setting": "[8]; intact Colo205 cells, increasing CPT-11", "result": "increased with drug dosage"}, {"measurement": "expression of genes listed in Table I", "setting": "[9]", "result": "upregulation of some of the genes listed in Table I was observed"}, {"measurement": "tumor growth", "setting": "[10]", "result": "transiently reduced the rate of tumor growth"}]}
